# Source: patent US12024736B2, “Method for detecting l-serine based on Escherichia coli cysteine desulfurase” (priority 2021, dated 2024)
# How the values were obtained:
# Format in all cases: biochemical
# [1] = target: T1, E. coli cysteine desulfurase (Escherichia coli, UniProt P0A6B7, P222S); test: Anti-interference of the detection method for D-serine, cycloserine and serine derivatives
# T1 construct: C-terminal histidine stretch (HHHHHH); made in house; host or cells: E. coli (IscA-/SufA- double-deficient strain is mentioned in the summary)
# [2] = target: T1, E. coli cysteine desulfurase; test: Quantitative detection of L-serine, absorbance at 528 nm (reaction time and linear range); settings: L-serine standard with reaction buffer, 25° C.
# Procedure: B. Reaction buffer: 40 mM Tris-HCl buffer (pH 9.0), 100 μM E. coli cysteine desulfurase, and 0.4 mM L-cysteine.
# L-serine to be tested was mixed with the reaction buffer in equal volumes, and incubated at 25° ° C. for different times; the absorbance was measured at a wavelength of 528 nm; a curve was plotted with the time as the horizontal axis and the absorbance value at 528 nm as the longitudinal axis.
# The L-serine standard solution was diluted to three concentrations, respectively: 0.50 mM, 1.00 mM, and 2.00 mM. Each serial dilution of the standard solution and the unknown sample (100 μL) were each mixed with 100 μL of reaction buffer, incubated at room temperature (25° C.) for 2 h, and the absorbance at 528 nm was measured for sample and standard tubes, respectively.
# A standard curve was plotted with the concentration of the standard solution as the abscissa and the absorbance measured at a wavelength of 528 nm as the ordinate, and the curve was fitted to obtain a curve equation and an R^2 value.
# [3] = target: T1, E. coli cysteine desulfurase; test: Determination of the ability to resist other L-amino acids (colour after incubation with enzyme); settings: 4 mM amino acid, equal volume of enzyme, 37° C., 250 rpm, 2 h, naked eye
Structure (SMILES),anti-interference ability of the detection method [1],incubation time at which the absorption peak at 528 nm reaches the highest [2],colour after incubation with E. coli cysteine desulfurase [3]
N[C@H](CO)C(=O)O [D-serine],good anti-interference ability,,
N[C@@H]1CON=C1O [cycloserine],good anti-interference ability,,
N[C@@H](CO)C(=O)O [L-serine],,2 h,red
